smiles,measurement,setting,value
CS(=O)(=O)c1ccc([C@@H](O)[C@@H](CO)NC(=O)C(Cl)Cl)cc1,solubility (mole fraction),"in 1,4-dioxane, 288.15 K",0.000384
same,solubility (mole fraction),"in 1,4-dioxane, 293.15 K",0.000508
same,solubility (mole fraction),"in 1,4-dioxane, 298.15 K",0.000728
same,solubility (mole fraction),"in 1,4-dioxane, 303.15 K",0.000973
same,solubility (mole fraction),"in 1,4-dioxane, 308.15 K",0.0013
same,solubility (mole fraction),"in 1,4-dioxane, 313.15 K",0.00173
same,solubility (mole fraction),"in 1,4-dioxane, 318.15 K",0.00227
same,solubility (mole fraction),"in 2-butanone, 278.15 K",0.000139
same,solubility (mole fraction),"in 2-butanone, 283.15 K",0.000197
same,solubility (mole fraction),"in 2-butanone, 288.15 K",0.000286
same,solubility (mole fraction),"in 2-butanone, 293.15 K",0.000379
same,solubility (mole fraction),"in 2-butanone, 298.15 K",0.00051
same,solubility (mole fraction),"in 2-butanone, 303.15 K",0.000704
same,solubility (mole fraction),"in 2-butanone, 308.15 K",0.000952
same,solubility (mole fraction),"in 2-butanone, 313.15 K",0.00125
same,solubility (mole fraction),"in 2-butanone, 318.15 K",0.00166
same,solubility (mole fraction),"in DMF, 278.15 K",0.0092
same,solubility (mole fraction),"in DMF, 283.15 K",0.012
same,solubility (mole fraction),"in DMF, 288.15 K",0.0156
same,solubility (mole fraction),"in DMF, 293.15 K",0.0199
same,solubility (mole fraction),"in DMF, 298.15 K",0.025
same,solubility (mole fraction),"in DMF, 303.15 K",0.0308
same,solubility (mole fraction),"in DMF, 308.15 K",0.0379
same,solubility (mole fraction),"in DMF, 313.15 K",0.0457
same,solubility (mole fraction),"in DMF, 318.15 K",0.0553
same,solubility (mole fraction),"in acetone, 278.15 K",0.000283
same,solubility (mole fraction),"in acetone, 283.15 K",0.000425
same,solubility (mole fraction),"in acetone, 288.15 K",0.000585
same,solubility (mole fraction),"in acetone, 293.15 K",0.00084
same,solubility (mole fraction),"in acetone, 298.15 K",0.00112
same,solubility (mole fraction),"in acetone, 303.15 K",0.00149
same,solubility (mole fraction),"in acetone, 308.15 K",0.00202
same,solubility (mole fraction),"in acetone, 313.15 K",0.00268
same,solubility (mole fraction),"in acetone, 318.15 K",0.00352
same,solubility (mole fraction),"in acetonitrile, 278.15 K",7.96e-05
same,solubility (mole fraction),"in acetonitrile, 283.15 K",0.000119
same,solubility (mole fraction),"in acetonitrile, 288.15 K",0.000177
same,solubility (mole fraction),"in acetonitrile, 293.15 K",0.000259
same,solubility (mole fraction),"in acetonitrile, 298.15 K",0.000363
same,solubility (mole fraction),"in acetonitrile, 303.15 K",0.000502
same,solubility (mole fraction),"in acetonitrile, 308.15 K",0.000716
same,solubility (mole fraction),"in acetonitrile, 313.15 K",0.00098
same,solubility (mole fraction),"in acetonitrile, 318.15 K",0.00134
same,solubility (mole fraction),"in ethanol, 278.15 K",0.000102
same,solubility (mole fraction),"in ethanol, 283.15 K",0.000148
same,solubility (mole fraction),"in ethanol, 288.15 K",0.000219
same,solubility (mole fraction),"in ethanol, 293.15 K",0.000309
same,solubility (mole fraction),"in ethanol, 303.15 K",0.000625
same,solubility (mole fraction),"in ethanol, 308.15 K",0.000837
same,solubility (mole fraction),"in ethanol, 313.15 K",0.00115
same,solubility (mole fraction),"in ethanol, 318.15 K",0.00157
same,solubility (mole fraction),"in ethyl acetate, 278.15 K",6.24e-05
same,solubility (mole fraction),"in ethyl acetate, 283.15 K",9.09e-05
same,solubility (mole fraction),"in ethyl acetate, 288.15 K",0.000124
same,solubility (mole fraction),"in ethyl acetate, 293.15 K",0.000171
same,solubility (mole fraction),"in ethyl acetate, 298.15 K",0.000246
same,solubility (mole fraction),"in ethyl acetate, 303.15 K",0.000348
same,solubility (mole fraction),"in ethyl acetate, 308.15 K",0.000471
same,solubility (mole fraction),"in ethyl acetate, 313.15 K",0.000643
same,solubility (mole fraction),"in ethyl acetate, 318.15 K",0.000861
same,solubility (mole fraction),"in isopropanol, 278.15 K",3.46e-05
same,solubility (mole fraction),"in isopropanol, 283.15 K",5.2e-05
same,solubility (mole fraction),"in isopropanol, 288.15 K",7.13e-05
same,solubility (mole fraction),"in isopropanol, 293.15 K",0.000104
same,solubility (mole fraction),"in isopropanol, 298.15 K",0.000146
same,solubility (mole fraction),"in isopropanol, 303.15 K",0.000201
same,solubility (mole fraction),"in isopropanol, 308.15 K",0.000269
same,solubility (mole fraction),"in isopropanol, 313.15 K",0.000364
same,solubility (mole fraction),"in isopropanol, 318.15 K",0.000493
same,solubility (mole fraction),"in methanol, 278.15 K",0.00023
same,solubility (mole fraction),"in methanol, 283.15 K",0.000345
same,solubility (mole fraction),"in methanol, 288.15 K",0.000518
same,solubility (mole fraction),"in methanol, 293.15 K",0.000715
same,solubility (mole fraction),"in methanol, 298.15 K",0.000993
same,solubility (mole fraction),"in methanol, 303.15 K",0.00141
same,solubility (mole fraction),"in methanol, 308.15 K",0.00189
same,solubility (mole fraction),"in methanol, 313.15 K",0.00259
same,solubility (mole fraction),"in methanol, 318.15 K",0.00341
same,solubility (mole fraction),"in n-butanol, 278.15 K",9.54e-06
same,solubility (mole fraction),"in n-butanol, 283.15 K",1.38e-05
same,solubility (mole fraction),"in n-butanol, 288.15 K",2.08e-05
same,solubility (mole fraction),"in n-butanol, 293.15 K",3.1e-05
same,solubility (mole fraction),"in n-butanol, 298.15 K",4.46e-05
same,solubility (mole fraction),"in n-butanol, 303.15 K",6.39e-05
same,solubility (mole fraction),"in n-butanol, 308.15 K",8.42e-05
same,solubility (mole fraction),"in n-butanol, 313.15 K",0.000123
same,solubility (mole fraction),"in n-butanol, 318.15 K",0.000165
same,solubility (mole fraction),"in n-propanol, 278.15 K",5.11e-05
same,solubility (mole fraction),"in n-propanol, 283.15 K",7.34e-05
same,solubility (mole fraction),"in n-propanol, 288.15 K",0.000103
same,solubility (mole fraction),"in n-propanol, 293.15 K",0.000147
same,solubility (mole fraction),"in n-propanol, 298.15 K",0.000199
same,solubility (mole fraction),"in n-propanol, 303.15 K",0.000285
same,solubility (mole fraction),"in n-propanol, 308.15 K",0.00038
same,solubility (mole fraction),"in n-propanol, 313.15 K",0.000509
same,solubility (mole fraction),"in n-propanol, 318.15 K",0.000687
same,solubility (mole fraction),"in toluene, 278.15 K",3.96e-06
same,solubility (mole fraction),"in toluene, 283.15 K",6.03e-06
same,solubility (mole fraction),"in toluene, 288.15 K",8.89e-06
same,solubility (mole fraction),"in toluene, 293.15 K",1.28e-05
same,solubility (mole fraction),"in toluene, 298.15 K",1.89e-05
same,solubility (mole fraction),"in toluene, 303.15 K",2.7e-05
same,solubility (mole fraction),"in toluene, 308.15 K",3.81e-05
same,solubility (mole fraction),"in toluene, 313.15 K",5.53e-05
same,solubility (mole fraction),"in toluene, 318.15 K",7.6e-05
same,solubility (mole fraction),"in water, 278.15 K",2.5e-05
same,solubility (mole fraction),"in water, 283.15 K",3.42e-05
same,solubility (mole fraction),"in water, 288.15 K",4.96e-05
same,solubility (mole fraction),"in water, 293.15 K",7.3e-05
same,solubility (mole fraction),"in water, 298.15 K",9.52e-05
same,solubility (mole fraction),"in water, 303.15 K",0.000132
same,solubility (mole fraction),"in water, 308.15 K",0.000187
same,solubility (mole fraction),"in water, 313.15 K",0.000253
same,solubility (mole fraction),"in water, 318.15 K",0.000339

# — BigSolDB 2.1
